System: TDP-43 aggregation in PC12 cells stably expressing TDP-43^Q331K::eGFP
Test: In vitro efficacy assay, TDP-43 aggregation concentration-response
Format: cell-based
Details: PC12 TDP-43^Q331K::eGFP, 1 hour pre-treatment, 15 μM sodium arsenite for 23 hours, 10-point dose response
Method: Exemplary compounds of the invention were evaluated for efficacy in inhibiting TDP-43 inclusions using a concentration-response assay. Briefly, PC12 cells stably expressing a GFP-tagged mutant form of TDP-43 (TDP-43^Q331K::eGFP) were pre-treated for 1 hour with exemplary compounds and stressed with 15 μM sodium arsenite for 23 hours to induce TDP-43 aggregation. The inhibitory effect on TDP-43 aggregation was measured using fluorescence microscopy. The ratio of cells with TDP-43 aggregates was calculated based on the total number of cells with detectable GFP expression.

[1] = Rattus norvegicus, PC-12, inhibition of TDP-43 aggregation

Compound | IC50 [1] [µM] | IC50 (inhibition of TDP-43 aggregation) [µM]
CCN(CC1CCCN(Cc2ccc(C(=O)OC)cc2)C1)C(=O)c1cc2ccccc2[nH]1 (stereo not drawn) [Compound 212] | > 10 | –
CCN(CC1CCCN(Cc2cc3ccccc3o2)C1)C(=O)c1cc2cc(OC)ccc2[nH]1 (stereo not drawn) [Compound 203] | 1.5 to 4 | –
CCN(CC1CCCN(Cc2ccc(OC)cc2)C1)C(=O)c1cc2c(F)cc(F)cc2[nH]1 (stereo not drawn) [Compound 170] | < 1.5 | –
CCN(CC1CCN(CC(C)(C)c2cc3ccccc3o2)CC1)C(=O)c1cc2ccccc2[nH]1 [compound 318] | – | < 1.5
CCN(CC1CCCN(Cc2ccccc2C#N)C1)C(=O)c1cc2ccccc2[nH]1 (stereo not drawn) [Compound 130] | 1.5 to 4 | –
CCN(CC1CCCN(Cc2ccc(Cl)cc2)C1)C(=O)c1cc2cc(F)ccc2[nH]1 (stereo not drawn) [Compound 150] | < 1.5 | –
CCN(CC1CCCN(Cc2cc3ccccc3o2)C1)C(=O)c1cc2c(F)cc(F)cc2[nH]1 (stereo not drawn) [Compound 205] | 1.5 to 4 | –
CCN(CC1CCCN(Cc2ccc(Cl)cc2)C1)C(=O)c1cc2cccc(F)c2[nH]1 (stereo not drawn) [Compound 157] | > 10 | –
CCN(CC1CCCN(Cc2ccc(Cl)cc2)C1)C(=O)c1cc2c(OC)cccc2[nH]1 (stereo not drawn) [Compound 163] | < 1.5 | –
CCN(CC1CCCN(CCc2ccccc2)C1)C(=O)c1cc2ccccc2[nH]1 (stereo not drawn) [Compound 216] | 1.5 to 4 | –
CCN(CC1CCCN(CCc2ccc(C#N)cc2)C1)C(=O)c1cc2ccccc2[nH]1 (stereo not drawn) [Compound 142] | > 10 | –
CCN(CC1CCCN(Cc2ccc(OC)cc2)C1)C(=O)c1cc2cc(Cl)ccc2[nH]1 (stereo not drawn) [Compound 161] | < 1.5 | –
CCN(CC1CCCN(Cc2ccc(Cl)cc2)C1)C(=O)c1cc2cc(OC)c(OC)cc2[nH]1 (stereo not drawn) [Compound 152] | > 10 | –

Further lines, with some results ahead:

IC50 [1] [µM] | Compound | IC50 (inhibition of TDP-43 aggregation) [µM]
> 10 | CCN(CC1CCCNC1)C(=O)c1cc2cc(OC(F)(F)F)ccc2[nH]1 (stereo not drawn) [compound 426] | –
4 to 7 | CCN(CC1CCN(Cc2ccccc2OC)CC1)C(=O)c1cc2ccccc2[nH]1 [compound 287] | –
> 10 | O=C(NCC1CCN(Cc2ccc(F)cc2)CC1)c1cc2ccccc2[nH]1 [compound 294] | –
< 1.5 | CC(C)(Cc1ccccc1)N1CCCC(CN(CC(F)(F)F)C(=O)c2cc3ccccc3[nH]2)C1 (stereo not drawn) [Compound 351] | –
< 1.5 | CCN(CC1CCCNC1)C(=O)c1cc2ccc(Cl)cc2[nH]1 (stereo not drawn) [compound 423] | –
< 1.5 | CCN(CC1CCN(Cc2ccc(OC)cc2)CC1)C(=O)c1cc2ccccc2[nH]1 [compound 288] | –
1.5 to 4 | CCN(CC1CCCN(CCc2cccc(OC)c2)C1)C(=O)c1ccc2ccccc2c1 (stereo not drawn) [Compound 237] | –
> 10 | CCN(CC1CCCNC1)C(=O)c1cc2c(OC)cccc2[nH]1 (stereo not drawn) [compound 422] | –
> 10 | CCN(CC1CCCNC1)C(=O)c1cc2cc(Cl)ccc2[nH]1 (stereo not drawn) [compound 420] | –
> 10 | CCN(CC1CCCNC1)C(=O)c1cc2cc(F)ccc2[nH]1 (stereo not drawn) [compound 414] | –
> 10 | CCN(CC1CCCNC1)C(=O)c1cc2c(Cl)cc(Cl)cc2[nH]1 (stereo not drawn) [compound 416] | –
< 1.5 | O=C(c1cc2ccccc2[nH]1)N(CC1CCN(CCc2cccc(F)c2)CC1)CC(F)(F)F [compound 306] | –
7 to 9.9 | CCN(CC1CCN(Cc2cc3ccccc3o2)CC1)C(=O)c1cc2ccccc2[nH]1 [Compound 327] | –
> 10 | CCN(CC1CCCN(c2cccc(OC)c2)C1)C(=O)c1cc2ccccc2[nH]1 (stereo not drawn) [Compound 228] | –
> 10 | CC(C)N(CC1CCN(Cc2ccc(Cl)cc2)CC1)C(=O)c1cc2ccccc2[nH]1 [compound 283] | –
< 1.5 | CCN(CC1CCCN(Cc2cccc(OC)c2)C1)C(=O)c1cc2ccccc2[nH]1 (stereo not drawn) [compound 122] | –
> 10 | CN(CC1CCN(Cc2ccccc2F)CC1)C(=O)c1cc2ccccc2[nH]1 [compound 258] | –
< 1.5 | CCN(CC1CCN(C(C)(C)Cc2cccc(OC)c2)CC1)C(=O)c1cc2ccccc2[nH]1 [Compound 332] | –
> 10 | CN(CC1CCN(Cc2ccc(Cl)cc2)CC1)C(=O)c1cc2ccccc2[nH]1 [compound 262] | –
> 10 | COc1ccccc1CN1CCC(CN(C(=O)c2cc3ccccc3[nH]2)C(C)C)CC1 [compound 282] | –
